These results are taken from patent publication US11492354B2, “Indazole compounds and uses thereof” (Incyte Corporation, priority 2018, dated 2022).

The Ki is a dissociation constant, usually derived from enzyme kinetics or from competition with a known ligand. A high value points to lower affinity.

The assay has as its target HPK1 (Homo sapiens (Human), UniProt Q92918). The assay is described as follows: HPK1 Kinase Binding Assay. Conditions: LanthaScreen tracer 222 binding, active HPK1, 1 h at 25° C. As to the method:
A stock solution of 1 mM test compound was prepared in DMSO. The compound plate was prepared by 3-fold and 11-point serial dilutions. 0.1 μL of the compound in DMSO was transferred from the compound plate to the white 384 well polystyrene plates. The assay buffer contained 50 mM HEPES, pH 7.5, 0.01% Tween-20, 5 mM MgCl2, 0.01% BSA, and 5 mM DTT. 5 μL of 4 nM active HPK1 (SignalChem M23-11G) prepared in the buffer was added to the plate. The enzyme concentration given was based on the given stock concentration reported by the vender. […] After one hour incubation at 25° C., the plates were read on a PHERAstar FS plate reader (BMG Labtech). Ki values were determined.
Background: In TR-FRET formats the signal depends on donor and acceptor labels being close together.

Some results are limits rather than exact numbers.

Chain of HPK1 (Q92918 1-346 limits assumed): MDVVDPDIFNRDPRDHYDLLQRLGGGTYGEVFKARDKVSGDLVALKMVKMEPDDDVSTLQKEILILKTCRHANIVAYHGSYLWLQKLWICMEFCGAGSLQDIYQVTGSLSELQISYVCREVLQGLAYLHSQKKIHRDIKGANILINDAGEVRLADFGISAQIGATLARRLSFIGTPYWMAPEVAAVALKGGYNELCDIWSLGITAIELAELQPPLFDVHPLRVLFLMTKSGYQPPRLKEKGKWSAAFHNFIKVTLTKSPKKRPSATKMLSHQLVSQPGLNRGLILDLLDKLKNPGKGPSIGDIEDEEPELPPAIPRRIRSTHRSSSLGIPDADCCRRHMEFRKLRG

Turning to `COc1cccc(F)c1-c1nccc(C(=O)Nc2cc(F)c3nn(C)cc3c2N2CCC[C@@H]2CN)n1` (single isomer, unassigned; peak 1) [10, Peak 1], the Ki was < 100 nM.
